According to PubChem BioAssay AID248 (DTP/NCI, 2004):
Where “and” joins values, the source holds several entries; their conditions need not be identical. Equal values may be shown once. Inconclusive results and toxic doses are left out. Rule as the data show it: active = T/C of 150% or more; inactive = T/C below 125%.

Tested on: L1210 leukemia ip in BDF1 mice, survival T/C
Test: NCI In Vivo Anticancer Drug Screen. Data for tumor model L1210 Leukemia (intraperitoneal) in B6D2F1 (BDF1) mice
Conditions: endpoint: mean survival time, higher = longer survival
Outline: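 Transplanted-tumor mice were given test agent; controls received vehicle only. Survival readings from the two groups were divided (treated over control).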

[1] = dose: 100.0 mg/kg/injection, schedule: Q01DX009 (ip), vehicle: Klucel (hydroxypropylcellulose) (HPC)
[2] = dose: 100.0 mg/kg/injection, schedule: Q04DX003 (ip), vehicle: Klucel (hydroxypropylcellulose) (HPC)
[3] = dose: 200.0 mg/kg/injection, schedule: Q04DX003 (ip), vehicle: Klucel (hydroxypropylcellulose) (HPC)
[4] = dose: 400.0 mg/kg/injection, schedule: Q04DX003 (ip), vehicle: Klucel (hydroxypropylcellulose) (HPC)
[5] = dose: 100.0 mg/kg/injection, schedule: Q01DX009 (ip), vehicle: saline with Tween-80
[6] = dose: 200.0 mg/kg/injection, schedule: Q01DX009 (ip), vehicle: saline with Tween-80
[7] = dose: 400.0 mg/kg/injection, schedule: Q01DX009 (ip), vehicle: saline with Tween-80
[8] = dose: 50.0 mg/kg/injection, schedule: Q01DX009 (ip), vehicle: saline
[9] = dose: 100.0 mg/kg/injection, schedule: Q01DX009 (ip), vehicle: saline
[10] = dose: 200.0 mg/kg/injection, schedule: Q01DX009 (ip), vehicle: saline
[11] = dose: 50.0 mg/kg/injection, schedule: Q01DX009 (ip), vehicle: saline with Tween-80
[12] = dose: 100.0 mg/kg/injection, schedule: Q04DX003 (ip), vehicle: saline
[13] = dose: 200.0 mg/kg/injection, schedule: Q04DX003 (ip), vehicle: saline

Measured: T/C

CCCCOC(=O)C(C)OC(=O)Nc1ccccc1 (stereo unspecified)
inactive: dose: 100.0 mg/kg/injection, schedule: Q01DX009 (sc), vehicle: olive oil, sesame oil, peanut oil 95 % of control | dose: 100.0 mg/kg/injection, schedule: Q04DX003 (sc), vehicle: olive oil, sesame oil, peanut oil 100 % of control | dose: 200.0 mg/kg/injection, schedule: Q01DX009 (sc), vehicle: olive oil, sesame oil, peanut oil 92 % of control | dose: 200.0 mg/kg/injection, schedule: Q04DX003 (sc), vehicle: olive oil, sesame oil, peanut oil 105 % of control | dose: 400.0 mg/kg/injection, schedule: Q01DX009 (sc), vehicle: olive oil, sesame oil, peanut oil 92 % of control | dose: 400.0 mg/kg/injection, schedule: Q04DX003 (sc), vehicle: olive oil, sesame oil, peanut oil 115 % of control

O=C(CCCC(=O)NNC(=O)Nc1ccc(N=Nc2ccccc2)cc1)NNC(=O)Nc1ccc(N=Nc2ccccc2)cc1
inactive: dose: 50.0 mg/kg/injection, schedule: Q01DX001 (ip), vehicle: saline 93 % of control | dose: 100.0 mg/kg/injection, schedule: Q01DX001 (ip), vehicle: saline 102 % of control | dose: 200.0 mg/kg/injection, schedule: Q01DX001 (ip), vehicle: saline 96 % of control | dose: 400.0 mg/kg/injection, schedule: Q01DX001 (ip), vehicle: saline 100 % of control

CC(C(=O)O)N1C(=O)c2ccccc2C1=O (stereo unspecified)
inactive: [1] 93 % of control | [2] 92 % of control | dose: 200.0 mg/kg/injection, schedule: Q01DX009 (ip), vehicle: Klucel (hydroxypropylcellulose) (HPC) 95 % of control | [3] 97 % of control | dose: 400.0 mg/kg/injection, schedule: Q01DX009 (ip), vehicle: Klucel (hydroxypropylcellulose) (HPC) 90 % of control | [4] 94 % of control

Clc1nccnc1C(Cl)(Cl)Cl
inactive: dose: 50.0 mg/kg/injection, schedule: Q01DX009 (ip), vehicle: other 92 % of control | dose: 100.0 mg/kg/injection, schedule: Q01DX009 (ip), vehicle: other 95 % of control

O=C(COc1ccc(Cl)cc1)Nc1cccc([N+](=O)[O-])c1
inactive: [5] 96 % of control | [6] 92 % of control | [7] 90 % of control

CC(C)(C)CC(C)(C)c1ccc(OCCOc2ccccc2NS(=O)(=O)c2ccc(N)cc2)cc1
inactive: [8] 94 % of control | [9] 91 % of control | [10] 91 % of control

Cc1[o+]c(C)c2c(c1C)-c1ccccc1C2=O
inactive: [11] 93 % of control | [5] 96 % of control | dose: 100.0 mg/kg/injection, schedule: Q04DX003 (ip), vehicle: saline with Tween-80 98 % of control | [6] 105 % of control | dose: 200.0 mg/kg/injection, schedule: Q04DX003 (ip), vehicle: saline with Tween-80 98 % of control | dose: 400.0 mg/kg/injection, schedule: Q04DX003 (ip), vehicle: saline with Tween-80 98 % of control

CC1(C)N=C(N)N=C(N)N1NC(=O)c1cccc(Cl)c1
inactive: [12] 101 % of control | [13] 94 % of control

CC(C)NC1C2CCC(CC2)C1(O)c1ccc(Cl)c(Cl)c1 (stereo unspecified)
inactive: dose: 25.0 mg/kg/injection, schedule: Q01DX009 (ip), vehicle: saline 101 % of control | dose: 25.0 mg/kg/injection, schedule: Q04DX003 (ip), vehicle: saline 95 % of control | [8] 95 % of control | dose: 50.0 mg/kg/injection, schedule: Q04DX003 (ip), vehicle: saline 97 % of control | [9] 100 % of control | [12] 92 % of control | [10] 95 % of control | [13] 101 % of control | dose: 400.0 mg/kg/injection, schedule: Q01DX009 (ip), vehicle: saline 92 % of control | dose: 400.0 mg/kg/injection, schedule: Q04DX003 (ip), vehicle: saline 92 % of control

COc1cc2c(cc1O)/C(=N/O)CCCC2
inactive: [11] 102 % of control | [5] 102 % of control | [6] 106 % of control | [7] 104 % of control

CN(C)P1(=O)OCCN1N (stereo unspecified)
inactive: [8] 105 % of control | [9] 117 % of control | [12] 104 % of control | [10] 103 % of control | [13] 96 % of control

CCCCCCCCCCC(=O)CCC
inactive: dose: 50.0 mg/kg/injection, schedule: Q01DX009 (ip), vehicle: Klucel (hydroxypropylcellulose) (HPC) 92 % of control | [1] 97 % of control | [2] 95 % of control and 98 % of control | [3] 90 % of control | [4] 95 % of control and 100 % of control
